Experimental data reported in patent publication US8834841B2, “Imaging agents” (priority 2005, dated 2014).

Experiments:
SKOV3 ovarian carcinoma = experiment: in vitro amino acid uptake, SKOV3 cells; assay type: cell-based, human
Description: The inventive compounds have been evaluated in vitro for tumor binding specificity (i.e. uptake cells) using a variety of tumor cell lines available in the art, along with reference compounds such as Me-AIB and BCH. Detailed description of these assays can be found in Martarello et al. (2002) Journal of Medicinal Chemistry, 45:2250-2259 and McConathy et al. (2003) Nuclear Medicine and Biology, 30:477-490. These, so called “amino acid uptake studies” are typically carried out with radiolabeled compounds in at least five phenotypically different human tumor cell lines (e.g. A549 lung carcinoma, MB468 breast carcinoma, DU145 prostate carcinoma, SKOV3 ovarian carcinoma, and U87 glial blastoma). These tumor cell lines can be grown either in vitro or in vivo with severe combined immunodeficiency (SCID) mice as a host. The fore-mentioned tumor cell lines are available at the Winship Cancer Institute of Emory University.
For the in vitro amino acid uptake studies, all cells can be grown to monolayer confluency in T-175 culture flasks [Corning, Corning, N.Y.] (approx. 1×10^8 cells/flask) in Dulbecco's Modified Eagle's Medium (DMEM) [Sigma, St. Louis, Mo.] in a humidified incubator (37° C., 5% CO2/95% air). Media are supplemented with 10% fetal calf serum [Hyclone, Logan, Utah], and antibiotics (10,000 U/ml penicillin and 10 mg/ml streptomycin) (Sigma, St. Louis, Mo.). For tissue culture passage, monolayer cells are detached by gentle trypsinization, resuspended in complete media, and split 1:10 into new T-flasks. […]
In the in vitro studies the uptake rate of each amino acid compound is measured in each tumor line, as well as the dominant transport mechanisms of each tumor cell line. After trypsinization, cells are resuspended in serum-free media, then counted on a hemocytometer, with viability assessed through Trypan blue staining. […] The vials are placed in a Cobra-II gamma counter (Packard, Meriden, Conn.), with the activity per cell number determined. […] Saline washes are performed as described above, and the filtered cells radioactivity determined on the gamma counter. […]

[1] = tested on: A549 Lung Tumor Cells Implanted SC in SCID Mice; experiment: tissue distribution, A549 tumor-bearing SCID mice; assay type: in vivo
Protocol: For the in vitro amino acid uptake studies, all cells can be grown to monolayer confluency in T-175 culture flasks [Corning, Corning, N.Y.] (approx. 1×10^8 cells/flask) in Dulbecco's Modified Eagle's Medium (DMEM) [Sigma, St. Louis, Mo.] in a humidified incubator (37° C., 5% CO2/95% air). Media are supplemented with 10% fetal calf serum [Hyclone, Logan, Utah], and antibiotics (10,000 U/ml penicillin and 10 mg/ml streptomycin) (Sigma, St. Louis, Mo.). For tissue culture passage, monolayer cells are detached by gentle trypsinization, resuspended in complete media, and split 1:10 into new T-flasks. Cultures are passaged weekly, and fed fresh media every 2 to 3 days. To initiate tumor growth in SCID mice, 1×10^6 cells are injected s.c. bilaterally into the flanks (inguinal region) of the recipient animals using a 1 ml syringe with a 27 gauge needle. Ex vivo experiments can be performed with animals containing tumors weighing between 500 mg and 1 g, as estimated by caliper measurement (tumor weight=(π/6)*abc, where a, b and c are the tumor length, width and height, respectively). The compounds of the invention are further evaluated for their tumor specificity and selectivity in tumor-bearing animal models. One can evaluate and compare the transport, accumulation and tissue distribution of each compound in these in vivo animal studies. Tissue distribution of the compounds is measured in SCID mice (average weight, 20-25 g) bearing human tumors as follows. The candidate radioligands (20 uCi in 0.4 ml 0.9% NaCl) are injected into the tail vein of tumor-bearing mice. […] Tissues (blood, heart, liver, lungs, kidneys, bone, thyroid, muscle, brain and tumor) are excised, rinsed in saline, and blotted dry. The tissues are weighed, placed into 12×75 mm glass vials, the radioactivity determined with a gamma counter, and the percent dose/gram calculated. Total activities of blood and muscle are calculated by assuming that they account for 7% and 40% of the total body mass, respectively.

Question: Which results are given for `NC1(C(=O)O)CCC1[18F]` [Anti-R,S 2-[^18F]FACBC, (R,S) anti-1-amino-2-[^18F]fluorocyclobutyl-1-carboxylic acid]?
Answer: % Dose Uptake/0.5e6 Cells (SKOV3 ovarian carcinoma; SKOV3, No inhibitor): 2.16 +/− 0.14 % Dose Uptake/0.5e6 Cells; % Dose Uptake/0.5e6 Cells (SKOV3 ovarian carcinoma; SKOV3, inhibitor BCH (10 mM)): 1.74 +/− 0.01 % Dose Uptake/0.5e6 Cells; % Dose Uptake/0.5e6 Cells (SKOV3 ovarian carcinoma; SKOV3, inhibitor MeAlB (10 mM)): 0.75 +/− 0.01 % Dose Uptake/0.5e6 Cells; % Dose/g blood ([1]; 15 Minutes): 3.39 % Dose/g; % Dose/g bone ([1]; 15 Minutes): 2.06 % Dose/g; % Dose/g brain ([1]; 15 Minutes): 0.26 % Dose/g; % Dose/g heart ([1]; 15 Minutes): 2.70 % Dose/g; % Dose/g kidney ([1]; 15 Minutes): 10.11 % Dose/g; % Dose/g liver ([1]; 15 Minutes): 3.15 % Dose/g; % Dose/g lung ([1]; 15 Minutes): 4.23 % Dose/g; % Dose/g muscle ([1]; 15 Minutes): 1.38 % Dose/g; % Dose/g pancreas ([1]; 15 Minutes): 48.45 % Dose/g; % Dose/g spleen ([1]; 15 Minutes): 7.90 % Dose/g; % Dose/g tumor ([1]; 15 Minutes): 5.11 % Dose/g; % Dose/g blood ([1]; 30 Minutes): 2.42 % Dose/g; % Dose/g bone ([1]; 30 Minutes): 1.63 % Dose/g; % Dose/g brain ([1]; 30 Minutes): 0.25 % Dose/g; % Dose/g heart ([1]; 30 Minutes): 2.23 % Dose/g; % Dose/g kidney ([1]; 30 Minutes): 5.47 % Dose/g; % Dose/g liver ([1]; 30 Minutes): 2.70 % Dose/g; % Dose/g lung ([1]; 30 Minutes): 3.03 % Dose/g; % Dose/g muscle ([1]; 30 Minutes): 1.43 % Dose/g; % Dose/g pancreas ([1]; 30 Minutes): 44.17 % Dose/g; % Dose/g spleen ([1]; 30 Minutes): 5.02 % Dose/g; % Dose/g tumor ([1]; 30 Minutes): 4.28 % Dose/g; % Dose/g blood ([1]; 60 Minutes): 1.08 % Dose/g; % Dose/g bone ([1]; 60 Minutes): 1.01 % Dose/g; % Dose/g brain ([1]; 60 Minutes): 0.16 % Dose/g; % Dose/g heart ([1]; 60 Minutes): 1.41 % Dose/g; % Dose/g kidney ([1]; 60 Minutes): 2.24 % Dose/g; % Dose/g liver ([1]; 60 Minutes): 1.46 % Dose/g; % Dose/g lung ([1]; 60 Minutes): 1.40 % Dose/g; % Dose/g muscle ([1]; 60 Minutes): 0.90 % Dose/g; % Dose/g pancreas ([1]; 60 Minutes): 20.63 % Dose/g; % Dose/g spleen ([1]; 60 Minutes): 2.85 % Dose/g; % Dose/g tumor ([1]; 60 Minutes): 3.04 % Dose/g; % Dose/g blood ([1]; 120 Minutes): 0.40 % Dose/g; % Dose/g bone ([1]; 120 Minutes): 0.62 % Dose/g; % Dose/g brain ([1]; 120 Minutes): 0.14 % Dose/g; % Dose/g heart ([1]; 120 Minutes): 0.85 % Dose/g; % Dose/g kidney ([1]; 120 Minutes): 1.02 % Dose/g; % Dose/g liver ([1]; 120 Minutes): 0.58 % Dose/g; % Dose/g lung ([1]; 120 Minutes): 0.56 % Dose/g; % Dose/g muscle ([1]; 120 Minutes): 0.77 % Dose/g; % Dose/g pancreas ([1]; 120 Minutes): 9.80 % Dose/g; % Dose/g spleen ([1]; 120 Minutes): 1.48 % Dose/g; % Dose/g tumor ([1]; 120 Minutes): 2.30 % Dose/g
